Laboratory results: ChEMBL document CHEMBL1140552, “Preparation, characterization and in vivo conversion of new water-soluble sulfenamide prodrugs of carbamazepine” (Bioorg Med Chem Lett, 2007)

Columns and labels:
Rattus norvegicus [1] = test: AUC in Sprague-Dawley rat assessed as carbamazepine level at 5.50 mg/227 g, iv; format: ADME, organism-based, Plasma; settings: in vivo
[2] = Solubility at pH 2.6; format: physicochemical; settings: buffer
Rattus norvegicus [3] = test: AUC in Sprague-Dawley rat assessed as carbamazepine level at 4.54 mg/187 g, iv; format: ADME, organism-based, Plasma; settings: in vivo
Rattus norvegicus [4] = test: Cmax in Sprague-Dawley rat assessed as carbamazepine level at 5.50 mg/227 g, iv; format: ADME, organism-based; parameters: route intravenous; settings: in vivo
Rattus norvegicus [5] = test: Cmax in Sprague-Dawley rat assessed as carbamazepine level at 4.54 mg/187 g, iv; format: ADME, organism-based; parameters: route intravenous; settings: in vivo

AUC (Rattus norvegicus [1]): 545 µg/min/mL
solubility [2]: 100 mg/mL
AUC (Rattus norvegicus [3]): 964 µg/min/mL
Cmax (Rattus norvegicus [4]): 16300 ng/mL
Cmax (Rattus norvegicus [5]): 14100 ng/mL
Structure (SMILES): NCCSNC(=O)N1c2ccccc2C=Cc2ccccc21.O=C(O)C(F)(F)F
